Patent US20250161307A1, “PYRAZOLOPYRIMIDINES AS MODULATORS OF SPERMINE OXIDASE” (Janssen Pharmaceutica NV, priority 2022, published 2025)
Structures can show the parent of a compound that is named as a salt.

Legend:
hPAOX = hPAOX (Homo sapiens (Human), UniProt Q6QHF9); test: Human PAOX assay (HyPerBlu chemiluminescent detection of hydrogen peroxide); type: biochemical; details: 60 pM recombinant PAOX, 20 μM N-acetylspermine substrate
Protocol: (§1) The direct detection of hydrogen peroxide produced from the enzymatic reaction of hSMOX or hPAOX in a biochemical assay format was measured using HyPerBlu (Lumigen, Southfield, MI), a small molecule boronate probe that reacts with hydrogen peroxide to generate a chemiluminescent signal. Inhibition of hSMOX or hPAOX enzyme results in a decrease in luminescence.
The hPAOX assay was run and the data analyzed similarly to the hSMOX assay described above, except the reactions contained 60 pM recombinant PAOX with an N-terminal His tag expressed from sf9 insect cells and used 20 μM N-acetylspermine as the substrate.

SMOX = SMOX (Homo sapiens (Human), UniProt Q9NWM0); test: Human SMOX assay (HyPerBlu chemiluminescent detection of hydrogen peroxide); type: biochemical; details: 2.5 nM full length hSMOX, spermine substrate, 1 h at room temperature, luminescence read; read-out: SMOx_IC50
Protocol: as §1
Test compounds (75 nL) dissolved in DMSO were added to a 384-well white assay plate (Greiner Bio-one, catalog #784075) using an ECHO Acoustic Dispenser (Labcyte). Each compound was serially diluted 3-fold in DMSO to prepare an 11-point dose response curve (columns 1-22). Column 23 and 24 contained 75 nL of 2 mM chlorhexidine and DMSO, respectively, to represent the 100% inhibited versus the neutral control reactions.
Subsequently, 3 μL/well of the substrate solution prepared in assay buffer (10 mM Hepes, pH 7.4, 150 mM NaCl, 1 mM EGTA, 0.01% Pluronic F-127, 0.05% ovalbumin) was dispensed into the assay plate followed by 3 μL/well of full length hSMOX enzyme with an N-terminal His tag from E. coli prepared in assay buffer to initiate the reactions. After a 1 h incubation at room temperature, 6 μL/well of HyPerBlu was added. After a 30 min incubation, the hydrogen peroxide product generated from the hSMOX reactions was measured using an endpoint luminescence read on the PHERAStar FS/FSX microplate reader (BMG LABTECH).
The final assay conditions included 10 mM Hepes, pH 7.4, 150 mM NaCl, 1 mM EGTA, 0.01% Pluronic F-127, 0.05% ovalbumin, 2.5 nM hSMOX, 30 µM spermine, and 1.25% DMSO.
Dose-response curves were fit and compound IC50 values were determined using Genedata Screener (Genedata AG).

Chain of hPAOX (Q6QHF9 whole entry): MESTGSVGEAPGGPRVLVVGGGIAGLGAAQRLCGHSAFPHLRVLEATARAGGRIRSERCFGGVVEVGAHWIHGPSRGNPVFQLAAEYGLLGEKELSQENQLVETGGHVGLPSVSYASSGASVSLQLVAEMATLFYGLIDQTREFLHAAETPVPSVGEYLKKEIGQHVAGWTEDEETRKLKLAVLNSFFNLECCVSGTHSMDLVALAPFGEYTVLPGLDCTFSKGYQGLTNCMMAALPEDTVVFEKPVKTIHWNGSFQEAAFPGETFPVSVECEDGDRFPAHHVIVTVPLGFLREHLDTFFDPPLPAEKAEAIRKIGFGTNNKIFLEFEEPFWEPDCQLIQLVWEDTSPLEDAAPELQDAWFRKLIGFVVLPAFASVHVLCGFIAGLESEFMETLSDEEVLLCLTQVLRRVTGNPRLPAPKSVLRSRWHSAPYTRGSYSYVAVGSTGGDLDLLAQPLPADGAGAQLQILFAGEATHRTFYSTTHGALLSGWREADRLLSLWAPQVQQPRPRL
Chain of SMOX (Q9NWM0 whole entry): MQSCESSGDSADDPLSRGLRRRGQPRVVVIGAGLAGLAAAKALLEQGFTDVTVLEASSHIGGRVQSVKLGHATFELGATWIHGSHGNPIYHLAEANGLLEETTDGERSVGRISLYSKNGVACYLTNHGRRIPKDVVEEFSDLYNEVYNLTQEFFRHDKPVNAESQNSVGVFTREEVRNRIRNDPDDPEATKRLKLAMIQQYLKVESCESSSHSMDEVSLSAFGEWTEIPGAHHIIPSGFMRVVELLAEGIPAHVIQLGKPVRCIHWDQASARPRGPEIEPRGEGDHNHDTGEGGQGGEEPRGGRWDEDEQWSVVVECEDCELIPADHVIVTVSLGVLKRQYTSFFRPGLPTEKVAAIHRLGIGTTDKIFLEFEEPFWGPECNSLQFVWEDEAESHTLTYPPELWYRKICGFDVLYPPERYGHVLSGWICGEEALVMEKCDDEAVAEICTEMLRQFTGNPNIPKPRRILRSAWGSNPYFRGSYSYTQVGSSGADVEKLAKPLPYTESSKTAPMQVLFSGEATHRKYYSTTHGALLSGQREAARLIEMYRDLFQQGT

SMILES	IC50 (hPAOX) [nM]	IC50 (SMOX) [nM]
CN1CC[C@@H](NC(=O)c2cc3nc(-c4ccccc4)cc(N4CCCCC4)n3n2)C1 (single isomer, unassigned) [Example 72, (*R)—N-(1-methylpyrrolidin-3-yl)-5-phenyl-7-(piperidin-1-yl)pyrazolo[1,5-a]pyrimidine-2-carboxamide trifluoroacetate]	7140	1010
CN1CC[C@H](NC(=O)c2cc3nc(-c4ccccc4)cc(N4CCCCC4)n3n2)C1 (single isomer, unassigned) [Example 73, (*S)—N-(1-methylpyrrolidin-3-yl)-5-phenyl-7-(piperidin-1-yl)pyrazolo[1,5-a]pyrimidine-2-carboxamide trifluoroacetate]	4210	1030
O=C(NC1CN(Cc2ccccc2)C1)c1cc2nc(-c3ccccc3)cc(-c3ccccc3)n2n1 [Example 3, N-(1-Benzylazetidin-3-yl)-5,7-diphenylpyrazolo[1,5-a]pyrimidine-2-carboxamide]	4540	4360
CC(C)N1CCC(NC(=O)c2cc3nc(-c4ccccc4)cc(-c4ccccc4)n3n2)C1 (stereo not shown) [Example 4, N-(1-Isopropylpyrrolidin-3-yl)-5,7-diphenylpyrazolo[1,5-a]pyrimidine-2-carboxamide]	8720	599
CCN1CCC(NC(=O)c2cc3nc(-c4ccccc4)cc(-c4ccccc4)n3n2)C1 (stereo not shown) [Example 5, N-(1-Ethylpyrrolidin-3-yl)-5,7-diphenylpyrazolo[1,5-a]pyrimidine-2-carboxamide]	914	367
CN1CCC(NC(=O)c2cc3nc(-c4ccccc4)cc(-c4ccccc4)n3n2)C1 (stereo not shown) [Example 6, N-(1-Methylpyrrolidin-3-yl)-5,7-diphenylpyrazolo[1,5-a]pyrimidine-2-carboxamide]	4950	230
CN1CC[C@H](NC(=O)c2cc3nc(-c4ccccc4)cc(-c4ccccc4)n3n2)C1 [Example 7, (S)—N-(1-Methylpyrrolidin-3-yl)-5,7-diphenylpyrazolo[1,5-a]pyrimidine-2-carboxamide]	1330	712
CN1CC[C@@H](NC(=O)c2cc3nc(-c4ccccc4)cc(-c4ccccc4)n3n2)C1 [Example 8, (R)—N-(1-Methylpyrrolidin-3-yl)-5,7-diphenylpyrazolo[1,5-a]pyrimidine-2-carboxamide]	10700	393
O=C(NCCCc1ccncc1)c1cc2nc(-c3ccccc3)cc(-c3ccccc3)n2n1 [Example 9, 5,7-Diphenyl-N-(3-(pyridin-4-yl)propyl)pyrazolo[1,5-a]pyrimidine-2-carboxamide]	1120	195
CN(C)CCNC(=O)c1cc2nc(-c3ccccc3)cc(-c3ccccc3)n2n1 [Example 10, N-(2-(Dimethylamino)ethyl)-5,7-diphenylpyrazolo[1,5-a]pyrimidine-2-carboxamide]	1380	617
CN(CCCn1ccnc1)C(=O)c1cc2nc(-c3ccccc3)cc(-c3ccccc3)n2n1 [Example 11, N-(3-(1H-Imidazol-1-yl)propyl)-N-methyl-5,7-diphenylpyrazolo[1,5-a]pyrimidine-2-carboxamide]	10300	567
O=C(NCCCN1CCOCC1)c1cc2nc(-c3ccccc3)cc(-c3ccccc3)n2n1 [Example 13, N-(3-Morpholinopropyl)-5,7-diphenylpyrazolo[1,5-a]pyrimidine-2-carboxamide]	5260	604
CCN1CCC[C@H]1CNC(=O)c1cc2nc(-c3ccccc3)cc(-c3ccccc3)n2n1 [Example 14, (S)—N-((1-Ethylpyrrolidin-2-yl)methyl)-5,7-diphenylpyrazolo[1,5-a]pyrimidine-2-carboxamide]	2440	401
O=C(NC1CCN(Cc2ccccc2)C1)c1cc2nc(-c3ccccc3)cc(-c3ccccc3)n2n1 (stereo not shown) [Example 16, N-(1-Benzylpyrrolidin-3-yl)-5,7-diphenylpyrazolo[1,5-a]pyrimidine-2-carboxamide]	4360	412
CN1CCC(NC(=O)c2cc3nc(-c4ccccc4)cc(-c4ccccc4)n3n2)CC1 [Example 17, N-(1-Methylpiperidin-4-yl)-5,7-diphenylpyrazolo[1,5-a]pyrimidine-2-carboxamide]	10400	606
O=C(NCC1CCN(C2CC2)C1)c1cc2nc(-c3ccccc3)cc(-c3ccccc3)n2n1 (stereo not shown) [Example 22, N-((1-Cyclopropylpyrrolidin-3-yl)methyl)-5,7-diphenylpyrazolo[1,5-a]pyrimidine-2-carboxamide]	535	691

SMILES	IC50 (hPAOX) [nM]	IC50 (SMOX) [nM]
CN1CCC(CNC(=O)c2cc3nc(-c4ccccc4)cc(-c4ccccc4)n3n2)CC1 [Example 24, N-((1-Methylpiperidin-4-yl)methyl)-5,7-diphenylpyrazolo[1,5-a]pyrimidine-2-carboxamide]	1940	907
O=C(NCCc1ncc[nH]1)c1cc2nc(-c3ccccc3)cc(-c3ccccc3)n2n1 [Example 25, N-(2-(1H-Imidazol-2-yl)ethyl)-5,7-diphenylpyrazolo[1,5-a]pyrimidine-2-carboxamide]	35	253
O=C(NCCCNc1ccccn1)c1cc2nc(-c3ccccc3)cc(-c3ccccc3)n2n1 [Example 26, 5,7-Diphenyl-N-(3-(pyridin-2-ylamino)propyl)pyrazolo[1,5-a]pyrimidine-2-carboxamide]	22	324
O=C(NCCNc1ccccn1)c1cc2nc(-c3ccccc3)cc(-c3ccccc3)n2n1 [Example 28, 5,7-Diphenyl-N-(2-(pyridin-2-ylamino)ethyl)pyrazolo[1,5-a]pyrimidine-2-carboxamide]	85	156
CN1CC(CNC(=O)c2cc3nc(-c4ccccc4)cc(-c4ccccc4)n3n2)C1 [Example 29, N-((1-Methylazetidin-3-yl)methyl)-5,7-diphenylpyrazolo[1,5-a]pyrimidine-2-carboxamide]	1760	480
O=C(NCCCCN1CCCC1)c1cc2nc(-c3ccccc3)cc(-c3ccccc3)n2n1 [Example 30, 5,7-Diphenyl-N-(4-(pyrrolidin-1-yl)butyl)pyrazolo[1,5-a]pyrimidine-2-carboxamide]	129	297
O=C(NCCCc1cccnc1)c1cc2nc(-c3ccccc3)cc(-c3ccccc3)n2n1 [Example 31, 5,7-Diphenyl-N-(3-(pyridin-3-yl)propyl)pyrazolo[1,5-a]pyrimidine-2-carboxamide]	2100	900
CN(CCCNC(=O)c1cc2nc(-c3ccccc3)cc(-c3ccccc3)n2n1)c1ccccn1 [Example 32, N-(3-(Methyl(pyridin-2-yl)amino)propyl)-5,7-diphenylpyrazolo[1,5-a]pyrimidine-2-carboxamide]	6220	850
CN(C)CC(C)(C)CNC(=O)c1cc2nc(-c3ccccc3)cc(-c3ccccc3)n2n1 [Example 33, N-(3-(Dimethylamino)-2,2-dimethylpropyl)-5,7-diphenylpyrazolo[1,5-a]pyrimidine-2-carboxamide]	> 31200	314
O=C(NCCc1c[nH]cn1)c1cc2nc(-c3ccccc3)cc(-c3ccccc3)n2n1 [Example 34, N-(2-(1H-Imidazol-4-yl)ethyl)-5,7-diphenylpyrazolo[1,5-a]pyrimidine-2-carboxamide]	11	262
O=C(NCCCN1CCC1)c1cc2nc(-c3ccccc3)cc(-c3ccccc3)n2n1 [Example 35, N-(3-(Azetidin-1-yl)propyl)-5,7-diphenylpyrazolo[1,5-a]pyrimidine-2-carboxamide]	362	523
O=C(NCCN1CCC1)c1cc2nc(-c3ccccc3)cc(-c3ccccc3)n2n1 [Example 36, N-(2-(Azetidin-1-yl)ethyl)-5,7-diphenylpyrazolo[1,5-a]pyrimidine-2-carboxamide]	995	360
O=C(NC1CCCC(n2ccnc2)C1)c1cc2nc(-c3ccccc3)cc(-c3ccccc3)n2n1 (stereo not shown) [Example 37, N-(3-(1H-Imidazol-1-yl)cyclohexyl)-5,7-diphenylpyrazolo[1,5-a]pyrimidine-2-carboxamide]	12600	878
O=C(NCCc1ccncc1)c1cc2nc(-c3ccccc3)cc(-c3ccccc3)n2n1 [Example 38, 5,7-Diphenyl-N-(2-(pyridin-4-yl)ethyl)pyrazolo[1,5-a]pyrimidine-2-carboxamide]	1140	4580
COc1ccc(-c2cc(-c3ccccc3)nc3cc(C(=O)NCCCn4ccnc4)nn23)cc1 [Example 79, N-(3-(1H-imidazol-1-yl)propyl)-7-(4-methoxyphenyl)-5-phenylpyrazolo[1,5-a]pyrimidine-2-carboxamide]	–	242
